Measured values: ChEMBL document CHEMBL1201862, “PubChem BioAssay data set” (2004)
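These data come from cells grown in 96-well plates and exposed to compound for 48 hours at five concentrations. The concentration for 50% growth inhibition is given as GI50.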 Active and inactive are the calls of the source. Cut-off read from the data, not from the text of the source: active = GI50 up to about 1.1 µM and inactive = higher.

Experiments:
Test in all cases: inhibition of tumour cell growth, NCI panel, 48 h
SK-OV-3 = tested on: SK-OV-3
SF-539 = tested on: SF-539
CAKI-1 = tested on: CAKI-1
HCT-116 = tested on: HCT-116
LOX IMVI = tested on: LOX IMVI
SF-295 = tested on: SF-295
COLO 205 = tested on: COLO 205
TK-10 = tested on: TK-10
SNB-19 = tested on: SNB-19
UO-31 = tested on: UO-31
NCI-H460 = tested on: NCI-H460
K562 = tested on: K562
MOLT-4 = tested on: MOLT-4
MCF7 = tested on: MCF7
KM12 = tested on: KM12
HOP-62 = tested on: HOP-62
RPMI-8226 = tested on: RPMI-8226
RXF 393 = tested on: RXF 393
M14 = tested on: M14
SK-MEL-5 = tested on: SK-MEL-5
MDA-MB-435 = tested on: MDA-MB-435
IGROV-1 = tested on: IGROV-1
UACC-62 = tested on: UACC-62
OVCAR-8 = tested on: OVCAR-8
DU-145 = tested on: DU-145
Malme-3M = tested on: Malme-3M
HOP-92 = tested on: HOP-92
UACC-257 = tested on: UACC-257
U-251 = tested on: U-251
MDA-MB-231 = tested on: MDA-MB-231
ACHN = tested on: ACHN
CCRF-CEM = tested on: CCRF-CEM
HCT-15 = tested on: HCT-15
A549 = tested on: A549
SK-MEL-2 = tested on: SK-MEL-2
EKVX = tested on: EKVX
A498 = tested on: A498
SW-620 = tested on: SW-620
NCI-H522 = tested on: NCI-H522
PC-3 = tested on: PC-3
OVCAR-3 = tested on: OVCAR-3
SN12C = tested on: SN12C
HL-60 = tested on: HL-60
Hs-578T = tested on: Hs-578T
786-0 = tested on: 786-0
MDA-N = tested on: MDA-N
NCI-H23 = tested on: NCI-H23
HCC 2998 = tested on: HCC 2998
BT-549 = tested on: BT-549
SR = tested on: SR
SF-268 = tested on: SF-268
T47D = tested on: T47D
HT-29 = tested on: HT-29
SK-MEL-28 = tested on: SK-MEL-28
OVCAR-5 = tested on: OVCAR-5
NCI/ADR-RES = tested on: NCI/ADR-RES
OVCAR-4 = tested on: OVCAR-4
SNB-75 = tested on: SNB-75
NCI-H226 = tested on: NCI-H226

Q: Which results are given for `CCOC(=O)CC(C)C(C#N)(OP1(=O)OC(c2ccccc2)C(C)N1C)c1ccccc1` (stereo not drawn)?
A: GI50 (SK-OV-3): 86.7 µM (inactive); GI50 (SF-539): > 100 µM (inactive); GI50 (CAKI-1): 81.5 µM (inactive); GI50 (HCT-116): 50.2 µM (inactive); GI50 (LOX IMVI): 55.3 µM (inactive); GI50 (SF-295): 46.9 µM (inactive); GI50 (COLO 205): 18.5 µM (inactive); GI50 (TK-10): 68.7 µM (inactive); GI50 (SNB-19): 99.1 µM (inactive); GI50 (UO-31): 35.4 µM (inactive); GI50 (NCI-H460): 47.4 µM (inactive); GI50 (K562): 32.1 µM (inactive); GI50 (MOLT-4): 28.8 µM (inactive); GI50 (MCF7): 37.8 µM (inactive); GI50 (KM12): 45.8 µM (inactive); GI50 (HOP-62): > 100 µM (inactive); GI50 (RPMI-8226): 36.3 µM (inactive); GI50 (RXF 393): 67.5 µM (inactive); GI50 (M14): 68.5 µM (inactive); GI50 (SK-MEL-5): 47.6 µM (inactive); GI50 (MDA-MB-435): 61 µM (inactive); GI50 (IGROV-1): 55.2 µM (inactive); GI50 (UACC-62): 58.7 µM (inactive); GI50 (OVCAR-8): 46.1 µM (inactive); GI50 (DU-145): 97.5 µM (inactive); GI50 (Malme-3M): 85.1 µM (inactive); GI50 (HOP-92): 17.8 µM (inactive); GI50 (UACC-257): 41.3 µM (inactive); GI50 (U-251): 49 µM (inactive); GI50 (MDA-MB-231): 59.7 µM (inactive); GI50 (ACHN): 44.1 µM (inactive); GI50 (CCRF-CEM): 29.9 µM (inactive); GI50 (HCT-15): 43.7 µM; GI50 (A549): 47 µM (inactive); GI50 (SK-MEL-2): 34.1 µM (inactive); GI50 (EKVX): 62.2 µM (inactive); GI50 (A498): 65.3 µM (inactive); GI50 (SW-620): 54.7 µM (inactive); GI50 (NCI-H522): 62.5 µM (inactive); GI50 (PC-3): 33.6 µM (inactive); GI50 (OVCAR-3): 50.7 µM (inactive); GI50 (SN12C): 58.9 µM (inactive); GI50 (HL-60): 34.9 µM (inactive); GI50 (Hs-578T): 83.6 µM (inactive); GI50 (786-0): 77.8 µM (inactive); GI50 (MDA-N): > 100 µM (inactive); GI50 (NCI-H23): 66.1 µM (inactive); GI50 (HCC 2998): 36 µM (inactive); GI50 (BT-549): 55.1 µM (inactive); GI50 (SR): 48.6 µM (inactive); GI50 (SF-268): > 100 µM (inactive); GI50 (T47D): 30.5 µM (inactive); GI50 (HT-29): 57.7 µM (inactive); GI50 (SK-MEL-28): 81.7 µM (inactive); GI50 (OVCAR-5): > 100 µM (inactive); GI50 (NCI/ADR-RES): 39.5 µM (inactive)

Q: How did the GI50 (SK-OV-3) turn out when `O=C(/C=C/c1ccccc1)c1cc(Br)ccc1O` was run?
A: 20 µM (inactive)

Q: What about the GI50 (CAKI-1) of the same molecule?
A: 15.8 µM (inactive)

Q: What about the GI50 (HCT-116) of the same molecule?
A: 16.3 µM (inactive)

Q: And the GI50 (LOX IMVI)?
A: 12.2 µM (inactive)

Q: And the GI50 (SF-295)?
A: 16.9 µM (inactive)

Q: What about the GI50 (COLO 205) of the same molecule?
A: 17.3 µM (inactive)

Q: What about the GI50 (TK-10) of the same molecule?
A: 17.6 µM (inactive)

Q: And the GI50 (SNB-19)?
A: 17.1 µM (inactive)

Q: And the GI50 (UO-31)?
A: 10.9 µM (inactive)

Q: And the GI50 (NCI-H460)?
A: 17.9 µM (inactive)

Q: And the GI50 (K562)?
A: 4.28 µM (inactive)

Q: And the GI50 (MOLT-4)?
A: 15.2 µM (inactive)

Q: What about the GI50 (MCF7) of the same molecule?
A: 10.8 µM (inactive)

Q: And the GI50 (KM12)?
A: 12 µM (inactive)

Q: What about the GI50 (HOP-62) of the same molecule?
A: 20.1 µM (inactive)

Q: And the GI50 (RPMI-8226)?
A: 6.84 µM (inactive)

Q: What about the GI50 (RXF 393) of the same molecule?
A: 18.8 µM (inactive)

Q: And the GI50 (M14)?
A: 24 µM (inactive)

Q: And the GI50 (SK-MEL-5)?
A: 15.3 µM (inactive)

Q: What about the GI50 (OVCAR-4) of the same molecule?
A: 15.1 µM (inactive)

Q: What about the GI50 (MDA-MB-435) of the same molecule?
A: 15.6 µM (inactive)

Q: What about the GI50 (IGROV-1) of the same molecule?
A: 11.5 µM (inactive)

Q: And the GI50 (UACC-62)?
A: 13.9 µM (inactive)

Q: And the GI50 (OVCAR-8)?
A: 16 µM (inactive)

Q: And the GI50 (DU-145)?
A: 14.9 µM (inactive)

Q: And the GI50 (HOP-92)?
A: 3.15 µM (inactive)

Q: What about the GI50 (UACC-257) of the same molecule?
A: 14 µM (inactive)

Q: And the GI50 (U-251)?
A: 15.1 µM (inactive)

Q: And the GI50 (MDA-MB-231)?
A: 18 µM (inactive)

Q: What about the GI50 (SNB-75) of the same molecule?
A: 15.4 µM (inactive)

Q: And the GI50 (ACHN)?
A: 15.1 µM (inactive)

Q: And the GI50 (CCRF-CEM)?
A: 6.3 µM (inactive)

Q: What about the GI50 (HCT-15) of the same molecule?
A: 14.1 µM

Q: And the GI50 (A549)?
A: 24 µM (inactive)

Q: What about the GI50 (SK-MEL-2) of the same molecule?
A: 21.4 µM (inactive)

Q: What about the GI50 (EKVX) of the same molecule?
A: 13.8 µM (inactive)

Q: And the GI50 (A498)?
A: 13.8 µM (inactive)

Q: And the GI50 (SW-620)?
A: 21 µM (inactive)

Q: And the GI50 (NCI-H226)?
A: 12.9 µM (inactive)

Q: What about the GI50 (NCI-H522) of the same molecule?
A: 12.5 µM (inactive)

Q: What about the GI50 (PC-3) of the same molecule?
A: 17.1 µM (inactive)

Q: What about the GI50 (OVCAR-3) of the same molecule?
A: 18 µM (inactive)

Q: And the GI50 (SN12C)?
A: 15.1 µM (inactive)

Q: What about the GI50 (HL-60) of the same molecule?
A: 4.06 µM (inactive)

Q: What about the GI50 (Hs-578T) of the same molecule?
A: 21.2 µM (inactive)

Q: And the GI50 (786-0)?
A: 13.9 µM (inactive)

Q: What about the GI50 (MDA-N) of the same molecule?
A: 15 µM (inactive)

Q: What about the GI50 (NCI-H23) of the same molecule?
A: 16 µM (inactive)

Q: And the GI50 (HCC 2998)?
A: 17.5 µM (inactive)

Q: What about the GI50 (BT-549) of the same molecule?
A: 16 µM (inactive)

Q: What about the GI50 (SR) of the same molecule?
A: 2.09 µM (inactive)

Q: What about the GI50 (SF-268) of the same molecule?
A: 16.9 µM (inactive)

Q: And the GI50 (T47D)?
A: 8.45 µM (inactive)

Q: And the GI50 (HT-29)?
A: 16.6 µM (inactive)

Q: And the GI50 (SK-MEL-28)?
A: 15.5 µM (inactive)

Q: And the GI50 (OVCAR-5)?
A: 22.3 µM (inactive)

Q: What about the GI50 (NCI/ADR-RES) of the same molecule?
A: 17.5 µM (inactive)
